From ChEMBL document CHEMBL5303573, “Mapping human microbiome drug metabolism by gut bacteria and their genes” (Nature, 2019)

How the values were obtained:
[1] = The drug is tested on Subdoligranulum variabile strain: DSM15176 for biotransformation. The drug concentrations were measured before and after a 12-h incubation by liquid-chromatography-coupled mass spectrometry (LC–MS); details: 2 µM
[2] = bacteroides eggerthii, 12 h, 2 µM
[3] = The drug is tested on Anaerococcus hydrogenalis strain: DSM7454 for biotransformation. The drug concentrations were measured before and after a 12-h incubation by liquid-chromatography-coupled mass spectrometry (LC–MS); details: 2 µM
[4] = The drug is tested on Bacteroides vulgatus strain: ATCC8482 for biotransformation. The drug concentrations were measured before and after a 12-h incubation by liquid-chromatography-coupled mass spectrometry (LC–MS); details: phocaeicola vulgatus, 2 µM
[5] = akkermansia muciniphila, 12 h, 2 µM
[6] = The drug is tested on Bacteroides fragilis strain: HMW615 for biotransformation. The drug concentrations were measured before and after a 12-h incubation by liquid-chromatography-coupled mass spectrometry (LC–MS); details: 2 µM
[7] = bacteroides fragilis, 12 h, 2 µM
[8] = The drug is tested on Bacteroides cellulosilyticus strain: DSM14838 for biotransformation. The drug concentrations were measured before and after a 12-h incubation by liquid-chromatography-coupled mass spectrometry (LC–MS); details: 2 µM
[9] = bacteroides stercoris, 12 h, 2 µM
[10] = anaerostipes sp., 12 h, 2 µM
[11] = bacteroides thetaiotaomicron, 12 h, 2 µM
[12] = The drug is tested on Bacteroides fragilis strain: HMW610 for biotransformation. The drug concentrations were measured before and after a 12-h incubation by liquid-chromatography-coupled mass spectrometry (LC–MS); details: 2 µM
[13] = The drug is tested on Providencia rettgeri strain: DSM1131 for biotransformation. The drug concentrations were measured before and after a 12-h incubation by liquid-chromatography-coupled mass spectrometry (LC–MS); format: ADME; design: dose 2 uM, timepoint 0 vs 12 hours; details: 2 µM
[14] = The drug is tested on Ruminococcus lactaris strain: ATCC29176 for biotransformation. The drug concentrations were measured before and after a 12-h incubation by liquid-chromatography-coupled mass spectrometry (LC–MS); details: 2 µM
[15] = The drug is tested on Blautia luti strain: DSM14534 for biotransformation. The drug concentrations were measured before and after a 12-h incubation by liquid-chromatography-coupled mass spectrometry (LC–MS); format: ADME; design: dose 2 uM, timepoint 0 vs 12 hours; details: 2 µM
[16] = parabacteroides distasonis, 12 h, 2 µM
[17] = The drug is tested on Clostridium scindens strain: ATCC35704 for biotransformation. The drug concentrations were measured before and after a 12-h incubation by liquid-chromatography-coupled mass spectrometry (LC–MS); details: 2 µM
[18] = parabacteroides johnsonii, 12 h, 2 µM
Description: The drug is tested on Parabacteroides johnsonii strain: DSM18315 for biotransformation. The drug concentrations were measured before and after a 12-h incubation by liquid-chromatography-coupled mass spectrometry (LC–MS)

[19] = roseburia intestinalis, 12 h, 2 µM
Description: The drug is tested on Roseburia intestinalis strain: L1-82 for biotransformation. The drug concentrations were measured before and after a 12-h incubation by liquid-chromatography-coupled mass spectrometry (LC–MS)

[20] = The drug is tested on Clostridium sp. strain: fecal isolate for biotransformation. The drug concentrations were measured before and after a 12-h incubation by liquid-chromatography-coupled mass spectrometry (LC–MS); details: 2 µM

| Structure (SMILES) | Bacterial Biotransformation [1] | Bacterial Biotransformation [2] | Bacterial Biotransformation [3] | Bacterial Biotransformation [4] | Bacterial Biotransformation [5] | Bacterial Biotransformation [6] | Bacterial Biotransformation [7] | Bacterial Biotransformation [8] | Bacterial Biotransformation [9] | Bacterial Biotransformation [10] | Bacterial Biotransformation [12] | Bacterial Biotransformation [13] | Bacterial Biotransformation [14] | Bacterial Biotransformation [15] | Bacterial Biotransformation [16] | Bacterial Biotransformation [17] | Bacterial Biotransformation [18] | Bacterial Biotransformation [19] | Bacterial Biotransformation [11] | Bacterial Biotransformation [20] |
| --- | --- | --- | --- | --- | --- | --- | --- | --- | --- | --- | --- | --- | --- | --- | --- | --- | --- | --- | --- | --- |
| O=C1N=C([O-])NC1(c1ccccc1)c1ccccc1.[Na+] [PHENYTOIN SODIUM] | Compound NOT metabolized | – | Compound NOT metabolized | Compound metabolized | – | Compound NOT metabolized | Compound NOT metabolized | Compound metabolized | Compound NOT metabolized | Compound NOT metabolized | Compound NOT metabolized | Compound NOT metabolized | – | – | Compound metabolized | Compound NOT metabolized | Compound metabolized | Compound NOT metabolized | Compound NOT metabolized | – |
| CS(=O)(=O)O.OC(CCN1CCCCC1)(c1ccccc1)c1ccccc1 [PRIDINOL METHANESULFONATE] | Compound NOT metabolized | Compound NOT metabolized | Compound NOT metabolized | Compound NOT metabolized | Compound NOT metabolized | Compound NOT metabolized | Compound NOT metabolized | Compound NOT metabolized | Compound NOT metabolized | Compound NOT metabolized | Compound NOT metabolized | Compound NOT metabolized | Compound NOT metabolized | Compound NOT metabolized | – | Compound NOT metabolized | – | Compound NOT metabolized | Compound NOT metabolized | – |
| OCCOCCN1CCN(C2=Nc3ccccc3Sc3ccccc32)CC1 [QUETIAPINE] | Compound NOT metabolized | Compound NOT metabolized | Compound NOT metabolized | Compound NOT metabolized | Compound NOT metabolized | Compound NOT metabolized | Compound NOT metabolized | Compound NOT metabolized | Compound NOT metabolized | Compound NOT metabolized | Compound NOT metabolized | – | Compound NOT metabolized | Compound NOT metabolized | – | Compound NOT metabolized | – | Compound NOT metabolized | – | – |
| O=C1C(CC[S+]([O-])c2ccccc2)C(=O)N(c2ccccc2)N1c1ccccc1 (centres undefined) [SULFINPYRAZONE] | Compound NOT metabolized | Compound NOT metabolized | Compound NOT metabolized | Compound NOT metabolized | Compound NOT metabolized | Compound metabolized | Compound metabolized | Compound NOT metabolized | Compound NOT metabolized | Compound NOT metabolized | Compound metabolized | – | Compound NOT metabolized | Compound NOT metabolized | Compound NOT metabolized | – | Compound NOT metabolized | Compound NOT metabolized | Compound NOT metabolized | – |
| CC(C)(C)NC[C@H](O)COc1nsnc1N1CCOCC1.O=C(O)/C=C\C(=O)O [TIMOLOL MALEATE] | Compound NOT metabolized | Compound NOT metabolized | Compound NOT metabolized | Compound NOT metabolized | Compound NOT metabolized | – | Compound NOT metabolized | Compound NOT metabolized | Compound NOT metabolized | Compound NOT metabolized | – | Compound NOT metabolized | Compound NOT metabolized | Compound NOT metabolized | Compound NOT metabolized | Compound NOT metabolized | Compound NOT metabolized | Compound NOT metabolized | Compound NOT metabolized | Compound NOT metabolized |

Second part, led by results:

| Bacterial Biotransformation [1] | Bacterial Biotransformation [2] | Bacterial Biotransformation [3] | Bacterial Biotransformation [4] | Bacterial Biotransformation [5] | Bacterial Biotransformation [6] | Bacterial Biotransformation [7] | Bacterial Biotransformation [8] | Bacterial Biotransformation [9] | Bacterial Biotransformation [10] | Bacterial Biotransformation [12] | Bacterial Biotransformation [13] | Bacterial Biotransformation [14] | Bacterial Biotransformation [15] | Bacterial Biotransformation [16] | Bacterial Biotransformation [17] | Bacterial Biotransformation [18] | Bacterial Biotransformation [19] | Structure (SMILES) | Bacterial Biotransformation [11] | Bacterial Biotransformation [20] |
| --- | --- | --- | --- | --- | --- | --- | --- | --- | --- | --- | --- | --- | --- | --- | --- | --- | --- | --- | --- | --- |
| Compound NOT metabolized | Compound NOT metabolized | Compound NOT metabolized | Compound metabolized | Compound metabolized | Compound NOT metabolized | Compound NOT metabolized | Compound NOT metabolized | Compound metabolized | Compound NOT metabolized | Compound NOT metabolized | Compound NOT metabolized | Compound NOT metabolized | Compound NOT metabolized | Compound metabolized | – | – | – | COc1ccc(CCN(C)CCCC(C#N)(c2ccc(OC)c(OC)c2)C(C)C)cc1OC (centres undefined) | Compound metabolized | – |
| Compound NOT metabolized | Compound metabolized | Compound NOT metabolized | – | – | Compound NOT metabolized | Compound NOT metabolized | Compound NOT metabolized | Compound NOT metabolized | Compound metabolized | Compound NOT metabolized | Compound NOT metabolized | – | Compound metabolized | Compound NOT metabolized | Compound NOT metabolized | Compound metabolized | – | CC(C)OC(=O)C(C)(C)Oc1ccc(C(=O)c2ccc(Cl)cc2)cc1 [FENOFIBRATE] | – | – |
| Compound NOT metabolized | Compound metabolized | Compound NOT metabolized | Compound metabolized | Compound NOT metabolized | – | Compound metabolized | Compound NOT metabolized | Compound NOT metabolized | Compound NOT metabolized | – | Compound NOT metabolized | Compound NOT metabolized | – | Compound NOT metabolized | Compound NOT metabolized | Compound NOT metabolized | Compound NOT metabolized | CC(C)c1nc(CN(C)C(=O)N[C@H](C(=O)N[C@@H](Cc2ccccc2)C[C@H](O)[C@H](Cc2ccccc2)NC(=O)OCc2cncs2)C(C)C)cs1 [RITONAVIR] | Compound NOT metabolized | Compound metabolized |
| Compound NOT metabolized | Compound NOT metabolized | Compound NOT metabolized | Compound NOT metabolized | Compound NOT metabolized | Compound NOT metabolized | – | Compound NOT metabolized | – | – | Compound NOT metabolized | Compound NOT metabolized | Compound NOT metabolized | Compound NOT metabolized | – | Compound NOT metabolized | – | Compound NOT metabolized | CN(C)CCc1c[nH]c2ccc(Cn3cncn3)cc12.O=C(O)c1ccccc1 [RIZATRIPTAN BENZOATE] | – | – |
| Compound NOT metabolized | Compound NOT metabolized | Compound NOT metabolized | Compound NOT metabolized | Compound NOT metabolized | Compound NOT metabolized | Compound NOT metabolized | Compound NOT metabolized | Compound NOT metabolized | Compound NOT metabolized | Compound NOT metabolized | Compound NOT metabolized | Compound NOT metabolized | Compound NOT metabolized | – | Compound NOT metabolized | Compound NOT metabolized | Compound NOT metabolized | CCCN(CCC)CCc1cccc2c1CC(=O)N2 [ROPINIROLE] | – | – |
